In patent publication US8765730B2 (Hoffmann-La Roche Inc, priority 2010, dated 2014):

Experiments:
[1] = IV infusion (0.8 μmol/kg/min) for 90 min, obese and normal human subjects, over 24 hours; cited from earlier work
[2] = biological target: T1, human GPBAR1 receptor (Homo sapiens, UniProt Q8TDU6); assay: functional cAMP assay in CHO-dhfr(minus) cells expressing human GPBAR1 receptors; assay type: cell-based; settings: human EC50, functional cAMP assay, 30 min at 30° C.
T1 construct: expressed in transfected cells
T1 sequence (Q8TDU6 1-330): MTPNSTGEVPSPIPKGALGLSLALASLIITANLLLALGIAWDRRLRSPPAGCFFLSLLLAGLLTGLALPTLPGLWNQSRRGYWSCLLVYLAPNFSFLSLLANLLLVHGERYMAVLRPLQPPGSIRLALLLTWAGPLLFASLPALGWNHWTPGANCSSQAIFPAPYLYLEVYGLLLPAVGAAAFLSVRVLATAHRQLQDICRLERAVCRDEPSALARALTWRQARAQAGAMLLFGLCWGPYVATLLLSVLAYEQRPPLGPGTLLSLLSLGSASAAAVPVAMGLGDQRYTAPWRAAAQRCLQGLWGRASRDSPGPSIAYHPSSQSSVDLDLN
Summary of the method: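 Agonist cAMP read-out: stable GPBAR1 CHO-dhfr− clone, 30 min compound exposure at 30° C following 30 min IBMX (1 mM) preincubation in Krebs Ringer bicarbonate. Time-resolved energy-transfer detection gives EC50; parental CHO cells serve as counter-screen.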

| Molecule | reduced food intake [1] | EC50 [2] |
| --- | --- | --- |
| PYY3-36 | 33% | – |
| COC(=O)CNC(=O)c1ccc(-c2ccc(C(C/C(=N\O)c3ccc(=O)n(C)c3)c3ccc(Cl)cc3C)cc2)cc1 (single isomer, unassigned; (+)) [Example 254, (+)-({4′-[1-(4-chloro-2-methyl-phenyl)-3-[(E)-hydroxyimino]-3-(1-methyl-6-oxo-1,6-dihydro-pyridin-3-yl)-propyl]-biphenyl-4-carbonyl}-amino)-acetic acid methyl ester] | – | 0.06 µM |
| COCc1nnc(-c2ccc([C@@H](C/C(=N\O)c3ccnc(C)c3)c3ccccc3C)cc2)o1 [Example 419, ((−), E)-3-[4-(5-Methoxymethyl-[1,3,4]oxadiazol-2-yl)-phenyl]-1-(2-methyl-pyridin-4-yl)-3-o-tolyl-propan-1-one oxime] | – | 0.008 µM |
| Cc1cc(Cl)ccc1C(C/C(=N\O)c1ccc(=O)n(CC(N)=O)c1)c1ccc(S(C)(=O)=O)cc1 (stereo not shown) [Example 343, (E)-2-(5-(3-(4-Chloro-2-methylphenyl)-1-(hydroxyimino)-3-(4-(methylsulfonyl)-phenyl)propyl)-2-oxopyridin-1(2H)-yl)acetamide] | – | 3.75 µM |
| Cc1cc(/C(CC(c2ccc(-c3ccc(S(C)(=O)=O)cc3)cc2)c2ccccc2C(F)(F)F)=N/O)ccn1 (stereo not shown) [Example 133, (E)-3-(4′-Methanesulfonyl-biphenyl-4-yl)-1-(2-methyl-pyridin-4-yl)-3-(2-trifluoromethyl-phenyl)-propan-1-one oxime] | – | 0.114 µM |
| Cc1ccccc1C(C/C(=N\O)c1ccc(=O)n(C)c1)c1ccc(C(=O)N[C@@H](C)CO)cc1 (stereo partly drawn) [Example 302, 4-((E)-3-(Hydroxyimino)-3-(1-methyl-6-oxo-1,6-dihydropyridin-3-yl)-1-o-tolylpropyl)-N—((S)-1-hydroxypropan-2-yl)benzamide] | – | 0.32 µM |
| COc1cc(C(CC(c2ccc(Br)cc2)c2ccccc2C)=NO)ccn1 (racemic) [Example 109, 3-(4-Bromo-phenyl)-1-(2-methoxy-pyridin-4-yl)-3-o-tolyl-propan-1-one oxime] | – | 0.702 µM |
| Cc1cc(/C(CC(c2ccc(-c3ccc(C(=O)O)cc3)cc2)c2ncccc2C)=N/O)ccn1 (stereo not shown) [Example 117, (E)-4′-[3-[Hydroxyimino]-3-(2-methyl-pyridin-4-yl)-1-(3-methyl-pyridin-2-yl)-propyl]-biphenyl-4-carboxylic acid] | – | 0.102 µM |
| Cc1cc(/C(CC(c2ccc(C(=O)N3CCC(F)(F)CC3)cc2)c2ccc(F)cc2F)=N/O)ccn1 (stereo not shown) [Example 437, 3-(2,4-Difluoro-phenyl)-3-[4-(4,4-difluoro-piperidine-1-carbonyl)-phenyl]-1-(2-methyl-pyridin-4-yl)-propan-1-one oxime] | – | 0.075 µM |
| COC(=O)c1ccc(-c2ccc(C(CC(=NO)c3ccnc(C)c3)c3ccccc3C)cc2)c(F)c1 (racemic) [Example 81, 2-Fluoro-4′-[3-[hydroxyimino]-3-(2-methyl-pyridin-4-yl)-1-o-tolyl-propyl]-biphenyl-4-carboxylic acid methyl ester] | – | 0.295 µM |
| Cc1cc(/C(CC(c2ccc(Br)cc2)c2ccc(Cl)cc2C)=N/O)ccn1 (stereo not shown) [Example 138, (E)-3-(4-Bromophenyl)-3-(4-chloro-2-methylphenyl)-1-(2-methylpyridin-4-yl)propan-1-one oxime] | – | 0.155 µM |
| COCCn1cc(/C(CC(c2ccc(S(C)(=O)=O)cc2)c2ccc(Cl)cc2C)=N/O)ccc1=O (stereo not shown) [Example 341, (E)-5-(3-(4-Chloro-2-methylphenyl)-1-(hydroxyimino)-3-(4-(methylsulfonyl)phenyl)-propyl)-1-(2-methoxyethyl)pyridin-2(1H)-one] | – | 0.164 µM |
| Cn1cc(/C(CC(CCCC(F)(F)F)c2ccc(Br)cc2)=N/O)ccc1=O (stereo not shown) [Example 175, 5-{3-(4-Bromo-phenyl)-7,7,7-trifluoro-1-[(E)-hydroxyimino]-heptyl}-1-methyl-1H-pyridin-2-one] | – | 1.31 µM |
